# Assay: recombinant UMI read abundance after kanamycin selection (control-corrected) (log10(CPM+1)); higher = more efficient recombination; extreme values may be limits of the assay; sequences stand for … in AGTGCAGAGAAAATCGGCCAGTTTTCTCTGCCTGCAGTCCGCATGCCGTGGGACCCCTTGGGTTCTAACCTGTTGCCTAGATTTATGCAGCGGACTGCCTTTCTCCCAAAGTGATAAACCGG…AGGTTGGTTTCACT; site = the 11-nt donor
# Summary of the method: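 The measure is log10(CPM+1) for recombinant UMIs. These were PCR-amplified across the donor–target junction and sequenced after Escherichia coli carrying a donor and donor-binding-loop pair library and a target plasmid with T7-inducible IS621 bridge recombinase was plated on IPTG (0.07 mM) plus kanamycin or unselected. CPM were averaged over two replicates and scaled by control-derived factors.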
# 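Further: IS621 bridge recombinase in Escherichia coli cells against a fixed T5 target plasmid.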
row,Sequence,recombinant UMI read abundance (log10)
1,GACTCCTCATGGACCGGTTTTCCCGGTAATCCGTATTTGCC (site AACTCCTCTGG),1.71
2,GACTCCTCATGGACCGGTTTTCCCGGTAATCCGTATTTGCC (site CACTCCTCTGG),1.86
3,GACTCCTCATGGACCGGTTTTCCCGGTAATCCGTATTTGCC (site GACTCCTCTGG),2.02
4,GACTCCTCATGGACCGGTTTTCCCGGTAATCCGTATTTGCC (site TACTCCTCTGG),2.07
5,GACTTAGCATGGACCGGTTTTCCCGGTAATCCGTATTTGTG (site GACTTAGCTCA),0.251
6,GACTTGACATGGACCGGTTTTCCCGGTAATCCGTATTTGCT (site AACTTGACTAG),1.3
7,GACTTGACATGGACCGGTTTTCCCGGTAATCCGTATTTGCT (site CACTTGACTAG),0.596
8,GACTTGACATGGACCGGTTTTCCCGGTAATCCGTATTTGCT (site GACTTGACTAG),0.984
9,GACTTGACATGGACCGGTTTTCCCGGTAATCCGTATTTGCT (site TACTTGACTAG),0.923
10,GACTTGGCATGGACCGGTTTTCCCGGTAATCCGTATTTGGA (site AACTTGGCTTC),0.227
11,GACTTGGCATGGACCGGTTTTCCCGGTAATCCGTATTTGGA (site CACTTGGCTTC),0.579
12,GACTTGGCATGGACCGGTTTTCCCGGTAATCCGTATTTGGA (site GACTTGGCTTC),0.654
13,GACTTGGCATGGACCGGTTTTCCCGGTAATCCGTATTTGGA (site TACTTGGCTTC),0.28
14,GACTTTCCATGGACCGGTTTTCCCGGTAATCCGTATTTGAC (site GACTTTCCTGT),0.0655
15,GAGAATGCATGGACCGGTTTTCCCGGTAATCCGTATTTGCT (site GAGAATGCTAG),2.16
16,GAGACGCCATGGACCGGTTTTCCCGGTAATCCGTATTTGAT (site GAGACGCCTAT),0.566
17,GAGATTCCATGGACCGGTTTTCCCGGTAATCCGTATTTGGG (site GAGATTCCTCC),0.0141
18,GAGCACACATGGACCGGTTTTCCCGGTAATCCGTATTTGAT (site GAGCACACTAT),1.9
19,GAGCACACATGGACCGGTTTTCCCGGTAATCCGTATTTGAT (site GAGCCCACTAT),0.0144
20,GAGCACACATGGACCGGTTTTCCCGGTAATCCGTATTTGAT (site GAGCGCACTAT),0.00425
21,GAGCACACATGGACCGGTTTTCCCGGTAATCCGTATTTGAT (site GAGCTCACTAT),0
22,GAGCCGGCATGGACCGGTTTTCCCGGTAATCCGTATTTGAA (site GAGCCGGCTTT),0.241
23,GAGCCGTCATGGACCGGTTTTCCCGGTAATCCGTATTTGAT (site GAGCCGTCTAT),1.32

row,Sequence,recombinant UMI read abundance (log10)
1,GAGCCTCCATGGACCGGTTTTCCCGGTAATCCGTATTTGAG (site GAGCCTCCTCT),0.0215
2,GAGCGCTCATGGACCGGTTTTCCCGGTAATCCGTATTTGCG (site GAGCGCTCTCG),2.26
3,GAGCGGACATGGACCGGTTTTCCCGGTAATCCGTATTTGGC (site GAGCGGACTGC),2.85
4,GAGCTACCATGGACCGGTTTTCCCGGTAATCCGTATTTGGC (site GAGCTACCTGC),0
5,GAGCTAGCATGGACCGGTTTTCCCGGTAATCCGTATTTGAA (site AAGCTAGCTTT),1.5
6,GAGCTAGCATGGACCGGTTTTCCCGGTAATCCGTATTTGAA (site CAGCTAGCTTT),0.896
7,GAGCTAGCATGGACCGGTTTTCCCGGTAATCCGTATTTGAA (site GAGCTAGCTTT),2.14
8,GAGCTAGCATGGACCGGTTTTCCCGGTAATCCGTATTTGAA (site TAGCTAGCTTT),1.63
9,GAGCTCACATGGACCGGTTTTCCCGGTAATCCGTATTTGAA (site GAGCTCACTAT),0.839
10,GAGCTCACATGGACCGGTTTTCCCGGTAATCCGTATTTGAA (site GAGCTCACTCT),0.0248
11,GAGCTCACATGGACCGGTTTTCCCGGTAATCCGTATTTGAA (site GAGCTCACTGT),0.716
12,GAGCTCACATGGACCGGTTTTCCCGGTAATCCGTATTTGAA (site GAGCTCACTTT),1.43
13,GAGCTCACATGGACCGGTTTTCCCGGTAATCCGTATTTGAG (site GAGCTCACTAT),0.277
14,GAGCTCACATGGACCGGTTTTCCCGGTAATCCGTATTTGAG (site GAGCTCACTCT),0.665
15,GAGCTCACATGGACCGGTTTTCCCGGTAATCCGTATTTGAG (site GAGCTCACTGT),0
16,GAGCTCACATGGACCGGTTTTCCCGGTAATCCGTATTTGAG (site GAGCTCACTTT),0.00749
17,GAGCTCCCATGGACCGGTTTTCCCGGTAATCCGTATTTGAT (site GAGCTCACTAT),0.00938
18,GAGCTCCCATGGACCGGTTTTCCCGGTAATCCGTATTTGAT (site GAGCTCCCTAT),1.07
19,GAGCTCCCATGGACCGGTTTTCCCGGTAATCCGTATTTGAT (site GAGCTCGCTAT),0
20,GAGCTCCCATGGACCGGTTTTCCCGGTAATCCGTATTTGAT (site GAGCTCTCTAT),2
21,GAGCTCTCATGGACCGGTTTTCCCGGTAATCCGTATTTGAT (site GAGCTCACTAT),0.0184
22,GAGCTCTCATGGACCGGTTTTCCCGGTAATCCGTATTTGAT (site GAGCTCCCTAT),1.06
23,GAGCTCTCATGGACCGGTTTTCCCGGTAATCCGTATTTGAT (site GAGCTCGCTAT),0.0051

row,Sequence,recombinant UMI read abundance (log10)
1,GAGCTCTCATGGACCGGTTTTCCCGGTAATCCGTATTTGAT (site GAGCTCTCTAT),2.58
2,GAGCTTCCATGGACCGGTTTTCCCGGTAATCCGTATTTGTC (site GAGCTTCCTGA),0.576
3,GAGGAATCATGGACCGGTTTTCCCGGTAATCCGTATTTGCG (site AAGGAATCTCG),2.23
4,GAGGAATCATGGACCGGTTTTCCCGGTAATCCGTATTTGCG (site CAGGAATCTCG),2.04
5,GAGGAATCATGGACCGGTTTTCCCGGTAATCCGTATTTGCG (site GAGGAATCTCG),2.47
6,GAGGAATCATGGACCGGTTTTCCCGGTAATCCGTATTTGCG (site TAGGAATCTCG),2.25
7,GAGGACGCATGGACCGGTTTTCCCGGTAATCCGTATTTGAG (site GAGGACGCTCT),1.9
8,GAGGAGACATGGACCGGTTTTCCCGGTAATCCGTATTTGCC (site GAGGAGACTGG),1.22
9,GAGGCACCATGGACCGGTTTTCCCGGTAATCCGTATTTGCA (site GAGGCACCTTG),0.344
10,GAGGCACCATGGACCGGTTTTCCCGGTAATCCGTATTTGCA (site GCGGCACCTTG),0
11,GAGGCACCATGGACCGGTTTTCCCGGTAATCCGTATTTGCA (site GGGGCACCTTG),0
12,GAGGCACCATGGACCGGTTTTCCCGGTAATCCGTATTTGCA (site GTGGCACCTTG),0
13,GAGGCCTCATGGACCGGTTTTCCCGGTAATCCGTATTTGAG (site GAGGCCTCTCT),1.42
14,GAGGTGGCATGGACCGGTTTTCCCGGTAATCCGTATTTGGC (site GAGGTGGCTGC),2.13
15,GAGTACGCATGGACCGGTTTTCCCGGTAATCCGTATTTGAT (site GAGTACGCTAT),1.99
16,GAGTAGTCATGGACCGGTTTTCCCGGTAATCCGTATTTGGA (site GAGTAGTCTTC),2.7
17,GAGTCAGCATGGACCGGTTTTCCCGGTAATCCGTATTTGCC (site GAGTCAGCTGG),1.07
18,GAGTTCACATGGACCGGTTTTCCCGGTAATCCGTATTTGAT (site GAGATCACTAT),0.00366
19,GAGTTCACATGGACCGGTTTTCCCGGTAATCCGTATTTGAT (site GAGCTCACTAT),0.905
20,GAGTTCACATGGACCGGTTTTCCCGGTAATCCGTATTTGAT (site GAGGTCACTAT),0
21,GAGTTCACATGGACCGGTTTTCCCGGTAATCCGTATTTGAT (site GAGTTCACTAT),1.69
22,GAGTTGTCATGGACCGGTTTTCCCGGTAATCCGTATTTGTT (site GAGTTGTCTAA),2.01
